ChEMBL document CHEMBL1143904, “Beta-lactam congeners of orlistat as inhibitors of fatty acid synthase” (Bioorg Med Chem Lett, 2008)
Activity calls are given as the source filed them. The rule behind the calls is not given here.

Assay: Inhibition of recombinant fatty acid synthase thioesterase domain by fluorogenic assay

SMILES | IC50 [µM] | Activity
CCCCCCCCCCC[C@@H](C[C@H]1[C@H](CCCCCC)C(=O)N1OCc1ccccc1)OC(=O)CNC=O | 68.9 | –
CCCCCC[C@@H]1C(=O)N(OCc2ccccc2)[C@H]1C[C@H](CCCCC)OC(=O)[C@@H](NC=O)C(C)C | 58.2 | –
CCCCCCCCCCC[C@@H](O)C[C@@H]1[C@@H](CCCCCC)C(=O)N1OCc1ccccc1 | 61.2 | –
CCCCCCCCCCC[C@@H](C[C@H]1[C@H](CCCCCC)C(=O)N1OCc1ccccc1)O[Si](C)(C)C(C)(C)C | 8.6 | –
CCCCCCCCCCC[C@H](C[C@@H]1[C@@H](CCCCCC)C(=O)N1OCc1ccccc1)OC(=O)CNC=O | 39.2 | –
CCCCCCCCCCC[C@H](C[C@H]1NC(=O)[C@@H]1CCCCCC)OC(=O)CNC=O | – | inactive
CCCCCCCCCCC[C@H](O)C[C@H]1[C@H](CCCCCC)C(=O)N1OCc1ccccc1 | 86.8 | –
CCCCCC[C@@H]1C(=O)N(OCc2ccccc2)[C@H]1C[C@@H](O)CCCCC | 50.5 | –
CCCCCCCCCCC[C@H](C[C@@H]1[C@@H](CCCCCC)C(=O)N1OCc1ccccc1)O[Si](C)(C)C(C)(C)C | 97.4 | –
CCCCCC[C@@H]1C(=O)N[C@H]1C[C@@H](O)CCCCC | 67.6 | –
CCCCCCCCCCC[C@@H](C[C@@H]1NC(=O)[C@H]1CCCCCC)OC(=O)CNC=O | – | inactive
